Laboratory results published in patent EP0354047A2, “Herbicidal method using atrazine” (MAY & BAKER LIMITED, priority 1988, dated 1990).

Legend:
[1] = test system: Digitaria horizontalis (DIGHO); experiment: Experiment 1: field experiment, post-emergence spray, % control 29 days after application; assay type: in vivo; conditions: Atrazine 1500g/ha
Experimental: (§1) Duplicate 12m² plots were sprayed post-emergence with 250g or 500g/ha Compound 1 (in a composition according to Example 1 as described hereinafter) or 1500g/ha atrazine (in a commercial aqueous suspension concentrate formulation containing 500g/l w/v atrazine or a combination (as a tank mix) of the two herbicides in a volume of 300 litres/ha. The following control figures were recorded on the grass weeds Brachiaria plantaginea (BRAPL), Digitaria horizontalis (DIGHO) and Eleusine indica (ELEIN) 29 days after application.

Eleusine indica (ELEIN) = experiment: as above; assay type: in vivo; conditions: Atrazine 1500g/ha
Experimental: as §1

Eleusine indica [2] = experiment: Experiment 2: glasshouse experiment, seedlings at 4-leaf stage, percentage phytotoxicity after 19 days; assay type: in vivo
Experimental: Agricultural surfactant - nonylphenol ethylene oxide condensate containing 9 moles ethylene oxide (in a commercial composition) was added to all spray dilutions to give 0.2% v/v concentration. […] The ED50 values were as follows:- The results were then used to plot an isobole with a "two-sided effect" according to the methods of […] op. cit. The isobole produced, shown hereinafter in Figure 1 was clearly a type III curve ([…]., page 75), characteristic of synergism.

Amaranthus retroflexus = experiment: Experiment 3: glasshouse, post-emergence, fresh weight after 19 days, % inhibition of growth; assay type: in vivo; conditions: for inhibition at 8 g/ha / inhibition at 16 g/ha / inhibition at 31 g/ha / inhibition at 63 g/ha / inhibition at 125 g/ha: Amaranthus retroflexus, post-emergence; for inhibition at 8 g/ha: Atrazine 8 g/ha alone; for inhibition at 16 g/ha: Atrazine 16 g/ha alone; for inhibition at 31 g/ha: Atrazine 31 g/ha alone; for inhibition at 63 g/ha: Atrazine 63 g/ha alone; for inhibition at 125 g/ha: Atrazine 125 g/ha alone; for ED₉₀: Atrazine alone
Experimental: (§2) A series of experiments was carried out to determine the nature of the biological interaction between atrazine and five compounds of general formula I on a range of weed species. […] The growth stages of the plants at spraying are also presented with the results. Agricultural surfactant (nonyl phenol ethylene oxide condensate containing 9 moles ethylene oxide marketed as 'Agral') was added to all spray dilutions to give 0.2% v/v concentration. […] After 19 days the fresh weight of vegetation in each pot was determined. […] E = […]00003:character} where E, X and Y are percentage inhibition of growth. In addition, the ED50 or ED90 values (the application rates giving 50% or 90% inhibition of growth, respectively) were calculated from the results for the piperidinedione alone and with increasing rates of atrazine.

Bidens pilosa = experiment: as above; assay type: in vivo; conditions: 2 leaves
Experimental: as §2

Brassica kaber = experiment: as above; assay type: in vivo; conditions: for ED₅₀ / ED₉₀: Atrazine alone; for inhibition at 8 g/ha / inhibition at 16 g/ha / inhibition at 31 g/ha / inhibition at 63 g/ha / inhibition at 125 g/ha: Mutarda arvensis, post-emergence; for inhibition at 8 g/ha: Atrazine 8 g/ha alone; for inhibition at 16 g/ha: Atrazine 16 g/ha alone; for inhibition at 31 g/ha: Atrazine 31 g/ha alone; for inhibition at 63 g/ha: Atrazine 63 g/ha alone; for inhibition at 125 g/ha: Atrazine 125 g/ha alone
Experimental: as §2

Digitaria sanguinalis = experiment: as above; assay type: in vivo; conditions: 3 leaves
Experimental: as §2

Eleusine indica [3] = experiment: as above; assay type: in vivo; conditions: 3 leaves
Experimental: as §2

Sesbania exactata = experiment: as above; assay type: in vivo; conditions: 2 leaves
Experimental: as §2

Solanum nigrum = experiment: as above; assay type: in vivo; conditions: for ED₉₀: Atrazine alone; for inhibition at 8 g/ha / inhibition at 16 g/ha / inhibition at 31 g/ha / inhibition at 63 g/ha / inhibition at 125 g/ha: Solanum nigrum, post-emergence; for inhibition at 8 g/ha: Atrazine 8 g/ha alone; for inhibition at 16 g/ha: Atrazine 16 g/ha alone; for inhibition at 31 g/ha: Atrazine 31 g/ha alone; for inhibition at 63 g/ha: Atrazine 63 g/ha alone; for inhibition at 125 g/ha: Atrazine 125 g/ha alone
Experimental: as §2

Xanthium strumarium = experiment: as above; assay type: in vivo; conditions: 2 leaves
Experimental: as §2

maize var.Irla = experiment: Experiment 5: glasshouse, crop plants at 3 leaf stage, percentage phytotoxicity after 12 days; conditions: for % crop phytotoxicity Maize (3 leaves): Compound 74 0 g/ha
Experimental: An experiment was carried out to determine the biological interaction between atrazine and Compound 74 on maize. A wide range of dose rates of atrazine i.e. 250, 500, 1000 and 2000 g/ha (in a commercial suspension concentrate formulation containing 500g/l w/v atrazine) and of Compound 74 i.e. 31, 63, 125, 250, 1000 and 2000 g/ha (in a composition according to Example 2 as described hereinafter) were applied in a spray volume of 290litres/ha to four replicate 10cm square plastic plant pots of loam soil containing one maize plant, at the 3 leaf growth stage. Agricultural surfactant ('Agral') was added to the spray dilutions to give 0.2%v/v concentration.
After spraying the pots were arranged in randomised blocks in a glasshouse and watered as necessary. After 12 days the plants were assessed for percentage phytotoxicity (reduction in green area compared with unsprayed plants) (0 = no effect 100 = complete destruction).
E = X + Y […] where E, X and Y are percentage phytotoxicity.
The ED values were then used to plot an isobole according to the method of P.M.L. Tammes op cit. The results of percentage phytotoxicity, the ED₂₀ values calculated from them and the calculated expected value are given in Table 9.

Structure (SMILES): CCNc1nc(Cl)nc(NC(C)C)n1 [Atrazine, 2-chloro-4-ethylamino-6-isopropylamino-1,3,5-triazine]
- % control observed [1]: 0%
- % control observed (Eleusine indica (ELEIN)): 0%
- percentage phytotoxicity (Eleusine indica [2]; Atrazine 125 g/ha alone): 2%
- percentage phytotoxicity (Eleusine indica [2]; Atrazine 250 g/ha alone): 13%
- percentage phytotoxicity (Eleusine indica [2]; Atrazine 500 g/ha alone): 17%
- percentage phytotoxicity (Eleusine indica [2]; Atrazine 1000 g/ha alone): 43%
- ED₅₀ (Eleusine indica [2]; Atrazine alone, 50% phytotoxicity): 1193 g/ha
- inhibition at 8 g/ha (Amaranthus retroflexus; 2-4 leaves, Table 4): 8%
- inhibition at 8 g/ha (Amaranthus retroflexus; 2 leaves, Table 1): 36%
- inhibition at 8 g/ha (Amaranthus retroflexus; 2 leaves, Table 5): 0%
- inhibition at 16 g/ha (Amaranthus retroflexus; 2-4 leaves, Table 4): 26%
- inhibition at 16 g/ha (Amaranthus retroflexus; 2 leaves, Table 1): 58%
- inhibition at 16 g/ha (Amaranthus retroflexus; 2 leaves, Table 5): 58%
- inhibition at 31 g/ha (Amaranthus retroflexus; 2-4 leaves, Table 4): 39%
- inhibition at 31 g/ha (Amaranthus retroflexus; 2 leaves, Table 1): 81%
- inhibition at 31 g/ha (Amaranthus retroflexus; 2 leaves, Table 5): 85%
- inhibition at 63 g/ha (Amaranthus retroflexus; 2-4 leaves, Table 4): 56%
- inhibition at 63 g/ha (Amaranthus retroflexus; 2 leaves, Table 1): 88%
- inhibition at 63 g/ha (Amaranthus retroflexus; 2 leaves, Table 5): 71%
- inhibition at 125 g/ha (Amaranthus retroflexus; 2-4 leaves, Table 4): 96%
- inhibition at 125 g/ha (Amaranthus retroflexus; 2 leaves, Table 1): 95%
- inhibition at 125 g/ha (Amaranthus retroflexus; 2 leaves, Table 5): 99%
- ED₉₀ (Amaranthus retroflexus; 2-4 leaves, Table 4): ED₉₀(g/ha) 105.79
- ED₉₀ (Amaranthus retroflexus; 2 leaves, Table 1): ED₉₀(g/ha) 68.57
- ED₉₀ (Amaranthus retroflexus; 2 leaves, Table 5): ED₉₀(g/ha) 53
- ED₅₀ (Bidens pilosa; Atrazine alone): ED₅₀(g/ha)63.17
- inhibition at 8 g/ha (Bidens pilosa; Bidens pilosa, post-emergence, Atrazine 8 g/ha alone): 0%
- inhibition at 16 g/ha (Bidens pilosa; Bidens pilosa, post-emergence, Atrazine 16 g/ha alone): 0%
- inhibition at 31 g/ha (Bidens pilosa; Bidens pilosa, post-emergence, Atrazine 31 g/ha alone): 5%
- inhibition at 63 g/ha (Bidens pilosa; Bidens pilosa, post-emergence, Atrazine 63 g/ha alone): 46%
- inhibition at 125 g/ha (Bidens pilosa; Bidens pilosa, post-emergence, Atrazine 125 g/ha alone): 92%
- ED₅₀ (Brassica kaber; 2-3 leaves, Table 4): ED₅₀(g/ha) 88.39
- ED₉₀ (Brassica kaber; 2 leaves, Table 5): ED₉₀(g/ha) 77
- ED₉₀ (Brassica kaber; 2 leaves, Table 6): ED₉₀(g/ha) 62.14
- ED₅₀ (Brassica kaber; 2 leaves, Table 7): ED₅₀(g/ha) 78.24
- inhibition at 8 g/ha (Brassica kaber; 2-3 leaves, Table 4): 16%
- inhibition at 8 g/ha (Brassica kaber; 2 leaves, Table 5): 0%
- inhibition at 8 g/ha (Brassica kaber; 2 leaves, Table 6): 0%
- inhibition at 8 g/ha (Brassica kaber; 2 leaves, Table 7): 0%
- inhibition at 16 g/ha (Brassica kaber; 2-3 leaves, Table 4): 5%
- inhibition at 16 g/ha (Brassica kaber; 2 leaves, Table 5): 21%
- inhibition at 16 g/ha (Brassica kaber; 2 leaves, Table 6): 35%
- inhibition at 16 g/ha (Brassica kaber; 2 leaves, Table 7): 0%
- inhibition at 31 g/ha (Brassica kaber; 2-3 leaves, Table 4): 19%
- inhibition at 31 g/ha (Brassica kaber; 2 leaves, Table 5): 42%
- inhibition at 31 g/ha (Brassica kaber; 2 leaves, Table 6): 41%
- inhibition at 31 g/ha (Brassica kaber; 2 leaves, Table 7): 17%
- inhibition at 63 g/ha (Brassica kaber; 2-3 leaves, Table 4): 30%
- inhibition at 63 g/ha (Brassica kaber; 2 leaves, Table 5): 60%
- inhibition at 63 g/ha (Brassica kaber; 2 leaves, Table 6): 91%
- inhibition at 63 g/ha (Brassica kaber; 2 leaves, Table 7): 27%
- inhibition at 125 g/ha (Brassica kaber; 2-3 leaves, Table 4): 57%
- inhibition at 125 g/ha (Brassica kaber; 2 leaves, Table 5): 100%
- inhibition at 125 g/ha (Brassica kaber; 2 leaves, Table 6): 100%
- inhibition at 125 g/ha (Brassica kaber; 2 leaves, Table 7): 75%
- ED₉₀ (Digitaria sanguinalis; Atrazine alone): ED₉₀ (g/ha) ∞
- inhibition at 125 g/ha (Digitaria sanguinalis; Digitaria sanguinalis, post-emergence, Atrazine 125 g/ha alone): 25%
- inhibition at 500 g/ha (Digitaria sanguinalis; Digitaria sanguinalis, post-emergence, Atrazine 500 g/ha alone): 24%
- inhibition at 1000 g/ha (Digitaria sanguinalis; Digitaria sanguinalis, post-emergence, Atrazine 1000 g/ha alone): 32%
- ED₅₀ (Eleusine indica [3]; Atrazine alone): ED₅₀ (g/ha)664.61
- inhibition at 125 g/ha (Eleusine indica [3]; Eleusine indica, post-emergence, Atrazine 125 g/ha alone): 4%
- inhibition at 500 g/ha (Eleusine indica [3]; Eleusine indica, post-emergence, Atrazine 500 g/ha alone): 36%
- inhibition at 1000 g/ha (Eleusine indica [3]; Eleusine indica, post-emergence, Atrazine 1000 g/ha alone): 66%
- ED₉₀ (Sesbania exactata; Atrazine alone): ED₉₀(g/ha)76.91
- inhibition at 8 g/ha (Sesbania exactata; Sesbania, post-emergence, Atrazine 8 g/ha alone): 21%
- inhibition at 16 g/ha (Sesbania exactata; Sesbania, post-emergence, Atrazine 16 g/ha alone): 34%
- inhibition at 31 g/ha (Sesbania exactata; Sesbania, post-emergence, Atrazine 31 g/ha alone): 68%
- inhibition at 63 g/ha (Sesbania exactata; Sesbania, post-emergence, Atrazine 63 g/ha alone): 86%
- inhibition at 125 g/ha (Sesbania exactata; Sesbania, post-emergence, Atrazine 125 g/ha alone): 96%
- ED₉₀ (Solanum nigrum; 1-2 leaves, Table 4): ED₉₀(g/ha) 121.27
- ED₉₀ (Solanum nigrum; 1 leaf, Table 6): ED₉₀(g/ha) 59.35
- ED₉₀ (Solanum nigrum; 2 leaves, Table 7): ED₉₀(g/ha) 72.94
- inhibition at 8 g/ha (Solanum nigrum; 1-2 leaves, Table 4): 9%
- inhibition at 8 g/ha (Solanum nigrum; 1 leaf, Table 6): 19%
- inhibition at 8 g/ha (Solanum nigrum; 2 leaves, Table 7): 6%
- inhibition at 16 g/ha (Solanum nigrum; 1-2 leaves, Table 4): 47%
- inhibition at 16 g/ha (Solanum nigrum; 1 leaf, Table 6): 45%
- inhibition at 16 g/ha (Solanum nigrum; 2 leaves, Table 7): 27%
- inhibition at 31 g/ha (Solanum nigrum; 1-2 leaves, Table 4): 47%
- inhibition at 31 g/ha (Solanum nigrum; 1 leaf, Table 6): 73%
- inhibition at 31 g/ha (Solanum nigrum; 2 leaves, Table 7): 35%
- inhibition at 63 g/ha (Solanum nigrum; 1-2 leaves, Table 4): 67%
- inhibition at 63 g/ha (Solanum nigrum; 1 leaf, Table 6): 94%
- inhibition at 63 g/ha (Solanum nigrum; 2 leaves, Table 7): 76%
- inhibition at 125 g/ha (Solanum nigrum; 1-2 leaves, Table 4): 90%
- inhibition at 125 g/ha (Solanum nigrum; 1 leaf, Table 6): 97%
- inhibition at 125 g/ha (Solanum nigrum; 2 leaves, Table 7): 99%
- ED₉₀ (Xanthium strumarium; Atrazine alone): ED₉₀(g/ha) 138.01
- inhibition at 8 g/ha (Xanthium strumarium; Xanthium strumarium, post-emergence, Atrazine 8 g/ha alone): 25%
- inhibition at 16 g/ha (Xanthium strumarium; Xanthium strumarium, post-emergence, Atrazine 16 g/ha alone): 21%
- inhibition at 31 g/ha (Xanthium strumarium; Xanthium strumarium, post-emergence, Atrazine 31 g/ha alone): 72%
- inhibition at 63 g/ha (Xanthium strumarium; Xanthium strumarium, post-emergence, Atrazine 63 g/ha alone): 59%
- inhibition at 125 g/ha (Xanthium strumarium; Xanthium strumarium, post-emergence, Atrazine 125 g/ha alone): 84%
- ED₂₀ (maize var.Irla; Atrazine alone): ED₂₀(g/ha) ∞
- crop phytotoxicity (maize var.Irla; Atrazine alone): no crop phytotoxicity
- % crop phytotoxicity Maize (3 leaves) (maize var.Irla; Atrazine 250 g/ha): 0%
- % crop phytotoxicity Maize (3 leaves) (maize var.Irla; Atrazine 500 g/ha): 0%
- % crop phytotoxicity Maize (3 leaves) (maize var.Irla; Atrazine 1000 g/ha): 0%
- % crop phytotoxicity Maize (3 leaves) (maize var.Irla; Atrazine 2000 g/ha): 0%
